# Measured values published in US20260055065A1, “PYRIDAZINONE COMPOUNDS WHICH MODULATE MUTANT PROTEINS FOR TREATING RESPIRATORY DISEASES” (The Hospital for Sick Children, priority 2022, published 2026).
# Target: T1, deltaF508 CFTR (Homo sapiens, UniProt P13569, DEL508-508)
# T1 construct: host or cells: CFBE (cystic fibrosis bronchial-derived cell line)
# Assay: CFBE potentiator assay (FLIPR membrane potential, temperature-rescued)
# Assay type: cell-based
# Conditions: CFBE cells, 3 micromolar forskolin; bin 1 nM-100 nM; read-out: CFBE potentiator EC50 range
# Description: Cell culture: HEK293 cells stably expressing human deltaF508 CFTR were cultured in DMEM/F12 medium containing 10% fetal bovine serum (FBS) and 600 micrograms/mL geneticin. For functional CFTR assays, cryo-preserved cells were quickly thawed in a 37° C. water bath, diluted with warm DMEM/F12 medium containing 10% FBS, spun down at 300×g for 5 mins and resuspended in the same medium at a density of 300,000 cells/mL. A cystic fibrosis bronchial-derived cell line complemented with a 4.7 Kb deltaF508 CFTR cDNA (“CFBE”) was obtained from Dr. Dieter Gruenert under a license from UCSF. These cells were cultured in MEM with Earle's salt (Invitrogen)supplemented with 10% fetal bovine serum (Invitrogen) and 300 micrograms/mL hygromycin (Millipore). CFBE cells were grown on flasks coated with a fibronectin solution containing LHC basal medium (Invitrogen), 0.001% bovine serum albumin (Sigma), 1% v/v Vitrogen 100 (BD Bioscience) and 10 micrograms/mL human fibronectin (Life Technologies). All cells were grown at 37° C. and 5% CO2 unless specified for an assay.
# CFBE potentiator assay: CFBE cells were dissociated for 10 mins at 37° C. with Hank's balanced salt solution containing 0.6 mM EDTA and 10% of a 0.25% Trypsin/EDTA solution (all from Life Technologies). An equal amount of CFBE cell growth medium (see Cell culture above) was then added to the flasks and cells were spun at 500×g for 10 mins. Cells were re-suspended in cell medium at a density of 150,000 cells/mL and plated in 384-well black, poly-D-Lysine-coated plates (7,500 cells/well). Cells were then grown at 37° C., 5% CO2 for a total of 6-8 days to allow differentiation. Cell medium was changed every 2-3 days. The day before each experiment, culture medium was removed, fresh culture medium was added and cells were placed at 30° C., 5% CO2 for 18-24 hrs to allow temperature rescue of delF508 CFTR. Potentiation activity was measured as described above for HEK cells except cells were stained for exactly 60 mins, compounds (or DMSO for negative control) were mixed with assay buffer containing 3 micromolar forskolin, and the positive control wells had assay buffer containing 3 micromolar forskolin and 9 micromolar VX-770 (Selleckchem).
# Data analysis: CFTR activity was defined as maximum fluorescence signal after addition minus baseline fluorescence. All data were normalized to each plate's positive and negative controls and expressed as percent responses. Concentration response curves were analyzed by fitting the data to a 4-parameter logistic equation in Microcal's Origin or IDBS' Activity Base software.
# T1 sequence (P13569 with tags, fused parts or gaps DEL508-508): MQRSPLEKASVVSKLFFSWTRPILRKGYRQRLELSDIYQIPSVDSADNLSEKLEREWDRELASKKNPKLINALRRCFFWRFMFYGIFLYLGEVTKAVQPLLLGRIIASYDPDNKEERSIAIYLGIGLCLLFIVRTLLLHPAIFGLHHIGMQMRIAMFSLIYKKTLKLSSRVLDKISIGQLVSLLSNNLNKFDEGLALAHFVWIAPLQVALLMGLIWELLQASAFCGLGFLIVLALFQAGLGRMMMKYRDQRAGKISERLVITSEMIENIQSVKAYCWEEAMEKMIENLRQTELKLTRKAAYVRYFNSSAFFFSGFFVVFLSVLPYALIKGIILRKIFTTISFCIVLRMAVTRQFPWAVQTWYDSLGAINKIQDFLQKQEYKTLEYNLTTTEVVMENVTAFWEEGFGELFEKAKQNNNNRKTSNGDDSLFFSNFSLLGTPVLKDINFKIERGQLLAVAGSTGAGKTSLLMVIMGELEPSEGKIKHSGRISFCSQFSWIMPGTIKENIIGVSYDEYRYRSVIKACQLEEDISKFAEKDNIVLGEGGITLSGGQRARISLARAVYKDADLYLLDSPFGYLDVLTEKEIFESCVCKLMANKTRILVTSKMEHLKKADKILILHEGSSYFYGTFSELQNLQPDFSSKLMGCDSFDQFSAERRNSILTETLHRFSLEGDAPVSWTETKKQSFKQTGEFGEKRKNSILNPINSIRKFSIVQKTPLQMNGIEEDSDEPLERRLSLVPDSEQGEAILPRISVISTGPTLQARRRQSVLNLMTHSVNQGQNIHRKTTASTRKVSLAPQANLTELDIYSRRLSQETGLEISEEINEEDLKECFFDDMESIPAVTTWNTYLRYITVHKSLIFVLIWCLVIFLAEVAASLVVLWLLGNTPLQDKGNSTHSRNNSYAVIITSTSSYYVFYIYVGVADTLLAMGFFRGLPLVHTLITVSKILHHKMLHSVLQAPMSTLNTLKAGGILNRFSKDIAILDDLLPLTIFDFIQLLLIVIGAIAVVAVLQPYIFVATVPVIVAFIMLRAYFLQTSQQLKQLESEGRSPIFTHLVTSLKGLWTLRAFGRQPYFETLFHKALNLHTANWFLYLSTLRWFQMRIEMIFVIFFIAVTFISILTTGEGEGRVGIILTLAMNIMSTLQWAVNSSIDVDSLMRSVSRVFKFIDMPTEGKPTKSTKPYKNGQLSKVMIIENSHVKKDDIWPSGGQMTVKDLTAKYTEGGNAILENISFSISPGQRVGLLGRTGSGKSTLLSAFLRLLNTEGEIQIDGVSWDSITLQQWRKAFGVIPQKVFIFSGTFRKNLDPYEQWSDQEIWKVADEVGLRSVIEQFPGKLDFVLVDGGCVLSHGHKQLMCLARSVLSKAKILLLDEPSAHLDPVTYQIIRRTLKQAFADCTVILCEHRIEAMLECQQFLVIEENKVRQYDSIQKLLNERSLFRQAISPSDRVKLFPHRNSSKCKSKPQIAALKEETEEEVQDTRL
row,Compound,EC50
1,Nc1c(N2CCCCC2)c(-c2ccccc2)nn(-c2ccc(Cl)c(O)c2)c1=O,1 to 100 nM
2,Nc1c(N2CCCC2)c(-c2ccc(F)cc2)nn(-c2ccc(Cl)c(O)c2)c1=O,1 to 100 nM
3,Nc1c(N2CCCC2)c(-c2ccc(F)cc2)nn(-c2ccc(F)c(O)c2)c1=O,1 to 100 nM
4,CC(C)c1ccc(-n2nc(-c3ccc(F)cc3)c(N3CCCC3)c(N)c2=O)cc1O,1 to 100 nM
5,Cc1ccc(-n2nc(-c3ccc(F)cc3)c(N3CCCC3)c(N)c2=O)cc1O,1 to 100 nM
6,Nc1c(N2CCCCC2)c(-c2ccccc2)nn(-c2ccc(C(F)(F)F)c(O)c2)c1=O,1 to 100 nM
7,Nc1c(N2CCCCC2)c(-c2ccc(F)cc2)nn(-c2ccc(C(F)(F)F)c(O)c2)c1=O,1 to 100 nM
8,Nc1c(N2CCCCC2)c(-c2ccc(F)cc2)nn(-c2cccc(O)c2)c1=O,1 to 100 nM
9,Nc1c(N2CCCC2)c(-c2ccccc2)nn(-c2ccc(Cl)c(O)c2)c1=O,1 to 100 nM
10,CC(C)c1ccc(-n2nc(-c3ccc(F)cc3)c(N3CCCCC3)c(N)c2=O)cc1O,1 to 100 nM
11,CC(C)(C)c1ccc(-n2nc(-c3ccccc3)c(N3CCCC3)c(N)c2=O)cc1O,1 to 100 nM
12,Nc1c(N2CCCCC2)c(-c2ccc(F)cc2)nn(-c2ccc(F)c(O)c2)c1=O,1 to 100 nM
13,Cc1ccc(-n2nc(-c3ccccc3)c(N3CCCCC3)c(N)c2=O)cc1O,1 to 100 nM
14,Cc1ccc(-n2nc(-c3ccc(F)cc3)c(N3CCCCC3)c(N)c2=O)cc1O,1 to 100 nM
15,CC(C)c1ccc(-n2nc(-c3ccccc3)c(N3CCCCC3)c(N)c2=O)cc1O,1 to 100 nM
16,Nc1c(N2CCCC2)c(-c2ccccc2)nn(-c2cccc(O)c2)c1=O,1 to 100 nM
17,CC(C)(C)c1ccc(-n2nc(-c3ccccc3)c(N3CCCCC3)c(N)c2=O)cc1O,1 to 100 nM
18,Nc1c(N2CCCC2)c(-c2ccc(F)cc2)nn(-c2ccc(C(F)(F)F)c(O)c2)c1=O,1 to 100 nM
19,Nc1c(N2CCCCC2)c(-c2ccnc(C(F)(F)F)c2)nn(-c2cccc(O)c2)c1=O,1 to 100 nM
20,CC(C)(C)c1ccc(-n2nc(-c3ccc(F)cc3)c(N3CCCC3)c(N)c2=O)cc1O,1 to 100 nM
21,CC(C)c1ccc(-n2nc(-c3ccccc3)c(N3CCCC3)c(N)c2=O)cc1O,1 to 100 nM
22,Nc1c(N2CCCCC2)c(-c2cccnc2)nn(-c2cccc(O)c2)c1=O,1 to 100 nM
23,Nc1c(-n2cccn2)c(-c2ccccc2)nn(-c2cccc(O)c2)c1=O,1 to 100 nM
24,Nc1c(N2CCC2)c(-c2ccccc2)nn(-c2cccc(O)c2)c1=O,1 to 100 nM
25,Nc1c(N2CCCCC2)c(-c2ccccc2)nn(-c2cccc(O)c2)c1=O,1 to 100 nM
26,Nc1c(N2CCCCC2)c(-c2ccncc2)nn(-c2cccc(O)c2)c1=O,1 to 100 nM
27,CC(C)(C)c1ccc(-n2nc(-c3ccc(F)cc3)c(N3CCCCC3)c(N)c2=O)cc1O [drawing 37],1 to 100 nM
28,Cc1ccccc1-c1nn(-c2cccc(O)c2)c(=O)c(N)c1N1CCCCC1 [drawing 38],1 to 100 nM
29,CN(C)c1c(-c2ccccc2)nn(-c2cccc(O)c2)c(=O)c1N [drawing 45],1 to 100 nM

# Same assay, conditions: CFBE cells, 3 micromolar forskolin; bin 100 nM-1 μM; read-out: CFBE potentiator EC50 range
row,Compound,EC50
1,Nc1c(N2CCCCC2)c(-c2ccccn2)nn(-c2cccc(O)c2)c1=O,100 to 1000 nM
2,Nc1c(N2CCOCC2)c(-c2ccccc2)nn(-c2cccc(O)c2)c1=O,100 to 1000 nM
3,Nc1c(N2CCCCC2)c(-c2ccccc2)nn(CC(O)C(F)(F)F)c1=O (centres unmarked),100 to 1000 nM
4,CC(CO)n1nc(-c2ccccc2)c(N2CCCCC2)c(N)c1=O (centres unmarked),100 to 1000 nM
5,Nc1c(N2CCCCC2)c(-c2ccccc2)nn(Cc2ccccc2)c1=O,100 to 1000 nM

# Same assay, conditions: CFBE cells, 3 micromolar forskolin; bin 1 μM-10 μM; read-out: CFBE potentiator EC50 range
row,Compound,EC50
1,Nc1c(N2CCCCC2)c(-c2ccccc2)nn(CCCO)c1=O,1000 to 10000 nM
2,N#CCCn1nc(-c2ccccc2)c(N2CCCCC2)c(N)c1=O,1000 to 10000 nM

# Same assay, conditions: CFBE cells, 3 micromolar forskolin; read-out: CFBE potentiator assay pot. pEC50 (converted)
row,Compound,EC50
1,"Cc1ccccc1-c1nn(-c2cccc(O)c2)c(=O)c(N)c1N1CCCCC1 [Compound 15, 4-amino-2-(3-hydroxyphenyl)-5-(piperidin-1-yl)-6-(o-tolyl)pyridazin-3(2H)-one]",15.8 nM
2,"CN(C)c1c(-c2ccccc2)nn(-c2cccc(O)c2)c(=O)c1N [Compound 21, 4-amino-5-(dimethylamino)-2-(3-hydroxyphenyl)-6-phenylpyridazin-3(2H)-one]",20 nM
